Assay results: US9951064B2, “Azaindazole compounds as inhibitors of T790M containing EGFR mutants” (Genentech, Inc., priority 2013, dated 2018)

Columns and labels:
EGFR T790M L858R = target: T1, EGFR T790M L858R (Homo sapiens, UniProt P00533, L858R/T790M); assay: EGFR T790M L858R biochemical assay (Caliper mobility shift); conditions: 5 μM ATP; apparent Ki (Morrison fit) converted by Cheng-Prusoff, Km of ATP 1.3 μM
T1 construct: purchased Life Technologies PV4879
In short: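 Reactions run 30 minutes at room temperature (22 °C), stopped with 80 mM EDTA. Phosphorylated product and substrate separated electrophoretically and quantified by Caliper mobility shift.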

EGFR del746-750 T790M = target: T2, EGFR del746-750 T790M (Homo sapiens, UniProt P00533, DEL746-750/T790M); assay: EGFR del746-750 T790M biochemical assay (Caliper mobility shift); conditions: 5 μM ATP; apparent Ki (Morrison fit) converted by Cheng-Prusoff, Km of ATP 2.1 μM; read-out: EGFR(T790M/d746-750) Ki
T2 construct: purchased Carna Biosciences 08-528
T2 sequence (P00533 with tags, fused parts or gaps DEL746-750/T790M limits assumed): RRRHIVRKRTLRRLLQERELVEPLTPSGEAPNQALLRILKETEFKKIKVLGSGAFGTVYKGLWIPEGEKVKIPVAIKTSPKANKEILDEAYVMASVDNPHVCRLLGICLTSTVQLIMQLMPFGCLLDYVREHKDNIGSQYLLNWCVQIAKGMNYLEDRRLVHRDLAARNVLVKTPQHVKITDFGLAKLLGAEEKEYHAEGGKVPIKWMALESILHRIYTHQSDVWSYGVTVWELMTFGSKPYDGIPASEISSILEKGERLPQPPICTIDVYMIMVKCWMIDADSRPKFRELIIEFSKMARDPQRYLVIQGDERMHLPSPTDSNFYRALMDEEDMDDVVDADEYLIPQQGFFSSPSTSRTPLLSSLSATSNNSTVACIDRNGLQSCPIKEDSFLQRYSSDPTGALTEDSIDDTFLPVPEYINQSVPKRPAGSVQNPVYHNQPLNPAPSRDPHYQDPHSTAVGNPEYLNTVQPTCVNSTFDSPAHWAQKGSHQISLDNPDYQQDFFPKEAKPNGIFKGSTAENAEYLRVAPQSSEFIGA
In short: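 Kinase reactions ran 30 min at room temperature (22 °C), then were stopped with 80 mM EDTA. Phosphorylated product and substrate were separated electrophoretically and quantified by Caliper mobility shift.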

[1] = target: T3, phosphor-EGFR in H1975(L585R/T790M) mutant EGFR expressing cells (Homo sapiens, UniProt P00533, L858R/T790M); assay: H1975 pEGFR MSD cellular assay; format: cell-based; conditions: NCI-H1975 cells, serum starved, 1 hour compound incubation, pEGFR Tyr1068 MSD; read-out: HI975 pEGFR EC50
T3 construct: host or cells: NCI-H1975
T3 sequence (P00533 25-1210 T790M/L858R): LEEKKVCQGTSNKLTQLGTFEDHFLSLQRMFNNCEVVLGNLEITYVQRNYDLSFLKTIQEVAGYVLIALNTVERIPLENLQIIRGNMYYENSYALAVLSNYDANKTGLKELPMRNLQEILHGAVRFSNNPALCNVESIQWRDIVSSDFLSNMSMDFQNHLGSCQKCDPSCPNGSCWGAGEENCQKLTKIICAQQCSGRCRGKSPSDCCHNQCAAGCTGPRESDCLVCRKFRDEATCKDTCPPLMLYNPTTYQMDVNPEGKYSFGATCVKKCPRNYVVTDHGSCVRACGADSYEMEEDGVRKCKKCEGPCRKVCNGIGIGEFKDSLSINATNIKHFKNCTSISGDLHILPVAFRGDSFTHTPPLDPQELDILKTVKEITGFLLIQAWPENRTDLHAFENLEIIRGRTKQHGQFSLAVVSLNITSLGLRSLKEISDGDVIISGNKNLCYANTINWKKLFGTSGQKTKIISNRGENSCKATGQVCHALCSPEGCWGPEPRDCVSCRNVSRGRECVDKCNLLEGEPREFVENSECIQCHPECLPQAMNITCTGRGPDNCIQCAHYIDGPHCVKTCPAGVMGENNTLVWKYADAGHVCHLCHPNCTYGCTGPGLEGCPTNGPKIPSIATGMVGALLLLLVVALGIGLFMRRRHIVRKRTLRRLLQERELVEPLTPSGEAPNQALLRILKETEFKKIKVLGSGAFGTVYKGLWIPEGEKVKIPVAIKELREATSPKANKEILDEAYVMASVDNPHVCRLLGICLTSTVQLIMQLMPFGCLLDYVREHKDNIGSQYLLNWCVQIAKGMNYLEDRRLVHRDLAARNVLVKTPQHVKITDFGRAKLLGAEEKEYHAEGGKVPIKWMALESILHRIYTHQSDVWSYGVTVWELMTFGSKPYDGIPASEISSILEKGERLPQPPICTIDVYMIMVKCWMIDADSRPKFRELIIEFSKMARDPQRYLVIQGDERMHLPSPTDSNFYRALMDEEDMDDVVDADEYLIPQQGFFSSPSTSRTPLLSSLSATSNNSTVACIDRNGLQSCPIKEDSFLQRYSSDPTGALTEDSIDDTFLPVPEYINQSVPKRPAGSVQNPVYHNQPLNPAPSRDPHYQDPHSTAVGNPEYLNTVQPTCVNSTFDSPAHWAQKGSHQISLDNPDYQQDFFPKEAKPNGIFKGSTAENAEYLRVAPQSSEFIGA
In short: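 NCI-H1975 cells, 30,000/well, serum-starved overnight, then treated 1 hour at 37° C with serially diluted compounds in serum-free medium (0.5% DMSO). Lysates captured on anti-phospho-EGFR plates overnight at 4° C, detected with SULFO-TAG anti-total EGFR by electrochemiluminescence. Inhibition vs untreated controls; EC50 from 4-parameter logistic fit.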

[2] = system: H1975 (EGFR T790M/L858R) cell proliferation; assay: H1975 proliferation assay (Cell Titer-Glo); format: cell-based; conditions: Homo sapiens, NCI-H1975, 72 h, NCI-H1975 cells, 72 hour incubation, read-out: H1975 antiproliferative EC50
Method: H1975 Proliferation Assays
All cell culture reagents were purchased from Invitrogen/Gibco. Cells are cultured at 37° C. at 5% CO2 and split as recommended by ATCC.

T1 sequence (P00533 25-1210 T790M/L858R): as above

Row | Ki (EGFR T790M L858R) [nM] | Ki (EGFR del746-750 T790M) [nM] | EC50 [1] [nM] | EC50 [2] [nM] | Compound
1 | 1 | 0.8 | 56.6 | 484 | CCNC(=O)C1CN(c2nn(C(C)C)c3cc(Nc4ccnc(-c5cnn(S(=O)(=O)C6CC6)c5)n4)ncc23)C1 [Example 162, 1-(6-(2-(1-(Cyclopropylsulfonyl)-1H-pyrazol-4-yl)pyrimidin-4-ylamino)-1-isopropyl-1H-pyrazolo[4,3-c]pyridin-3-yl)-N-ethylazetidine-3-carboxamide]
2 | 0.9 | 0.9 | 26.5 | 344 | CC(C)n1nc(N2CC(C(=O)N3CCOCC3)C2)c2cnc(Nc3ccnc(-c4cnn(S(=O)(=O)C5CC5)c4)n3)cc21 [Example 163, (1-(6-(2-(1-(Cyclopropylsulfonyl)-1H-pyrazol-4-yl)pyrimidin-4-ylamino)-1-isopropyl-1H-pyrazolo[4,3-c]pyridin-3-yl)azetidin-3-yl)(morpholino)methanone]
3 | 1.2 | 1.1 | 430 | 2520 | CC(C)n1nc(N2CC(C(=O)N3CC[C@@H](O)C3)C2)c2cnc(Nc3ccnc(-c4cnn(S(=O)(=O)C5CC5)c4)n3)cc21 [Example 164, (R)-(1-(6-(2-(1-(Cyclopropylsulfonyl)-1H-pyrazol-4-yl)pyrimidin-4-ylamino)-1-isopropyl-1H-pyrazolo[4,3-c]pyridin-3-yl)azetidin-3-yl)(3-hydroxypyrrolidin-1-yl)methanone]
4 | 1.9 | 1.9 | 95.6 | 193 | CC(C)n1nc(N2CC(C(=O)NCC(F)(F)F)C2)c2cnc(Nc3ccnc(-c4cnn(S(=O)(=O)C5CC5)c4)n3)cc21 [Example 165, 1-(6-(2-(1-(Cyclopropylsulfonyl)-1H-pyrazol-4-yl)pyrimidin-4-ylamino)-1-isopropyl-1H-pyrazolo[4,3-c]pyridin-3-yl)-N-(2,2,2-trifluoroethyl)azetidine-3-carboxamide]
5 | 0.7 | 0.7 | 177 | 1160 | CC(C)n1nc(N2CC(C(=O)N3CC[C@H](CO)C3)C2)c2cnc(Nc3ccnc(-c4cnn(S(=O)(=O)C5CC5)c4)n3)cc21 [Example 166, (S)-(1-(6-(2-(1-(cyclopropylsulfonyl)-1H-pyrazol-4-yl)pyrimidin-4-ylamino)-1-isopropyl-1H-pyrazolo[4,3-c]pyridin-3-yl)azetidin-3-yl)(3-(hydroxymethyl)pyrrolidin-1-yl)methanone]
6 | 0.7 | 0.5 | 189 | 1830 | CC(C)n1nc(N2CC(C(=O)N3CC[C@@H](CO)C3)C2)c2cnc(Nc3ccnc(-c4cnn(S(=O)(=O)C5CC5)c4)n3)cc21 [Example 167, (R)-(1-(6-(2-(1-(cyclopropylsulfonyl)-1H-pyrazol-4-yl)pyrimidin-4-ylamino)-1-isopropyl-1H-pyrazolo[4,3-c]pyridin-3-yl)azetidin-3-yl)(3-(hydroxymethyl)pyrrolidin-1-yl)methanone]
7 | 1.5 | 1.2 | 25.5 | 283 | CC(C)n1nc(N2CC(C(=O)N3CC4CCC(C3)O4)C2)c2cnc(Nc3ccnc(-c4cnn(S(=O)(=O)C5CC5)c4)n3)cc21 [Example 168, 8-Oxa-3-azabicyclo[3.2.1]octan-3-yl(1-(6-(2-(1-(cyclopropylsulfonyl)-1H-pyrazol-4-yl)pyrimidin-4-ylamino)-1-isopropyl-1H-pyrazolo[4,3-c]pyridin-3-yl)azetidin-3-yl)methanone]
8 | 1.4 | 1.2 | 34.2 | 825 | CC(C)NC(=O)C1CN(c2nn(C(C)C)c3cc(Nc4ccnc(-c5cnn(S(=O)(=O)C6CC6)c5)n4)ncc23)C1 [Example 169, 1-(6-(2-(1-(Cyclopropylsulfonyl)-1H-pyrazol-4-yl)pyrimidin-4-ylamino)-1-isopropyl-1H-pyrazolo[4,3-c]pyridin-3-yl)-N-isopropylazetidine-3-carboxamide]
9 | 1.4 | 1.2 | 731 | > 10000 | CC(C)n1nc(N2CC(C(=O)NC3CC(O)C3)C2)c2cnc(Nc3ccnc(-c4cnn(S(=O)(=O)C5CC5)c4)n3)cc21 (stereo not shown) [Example 170, 1-(6-(2-(1-(Cyclopropylsulfonyl)-1H-pyrazol-4-yl)pyrimidin-4-ylamino)-1-isopropyl-1H-pyrazolo[4,3-c]pyridin-3-yl)-N-(3-hydroxycyclobutyl)azetidine-3-carboxamide]
10 | 6.2 | 33.1 | 703 | 1070 | CC(n1nc(N2CCNC2=O)c2cnc(Nc3ccnc(N4CCC(C)(O)CC4)n3)cc21)C(F)(F)F (stereo not shown) [Example 171, 1-(6-(2-(4-Hydroxy-4-methylpiperidin-1-yl)pyrimidin-4-ylamino)-1-(1,1,1-trifluoropropan-2-yl)-1H-pyrazolo[4,3-c]pyridin-3-yl)imidazolidin-2-one]
11 | 1.8 | 2.5 | 154 | 699 | CC(n1nc(N2CC3(COC3)C2)c2cnc(Nc3ccnc(-c4cnn(S(=O)(=O)C5CC5)c4)n3)cc21)C(F)(F)F (stereo not shown) [Example 172, N-(2-(1-(Cyclopropylsulfonyl)-1H-pyrazol-4-yl)pyrimidin-4-yl)-3-(2-oxa-6-azaspiro[3.3]heptan-6-yl)-1-(1,1,1-trifluoropropan-2-yl)-1H-pyrazolo[4,3-c]pyridin-6-amine]
12 | 8.2 | 10.8 | 3260 | > 10000 | CC(C)n1nc(NCC(F)(F)F)c2cnc(Nc3ccnc(-c4cnn(S(=O)(=O)C5CC5)c4)n3)cc21 [Example 181, N^6-(2-(1-(cyclopropylsulfonyl)-1H-pyrazol-4-yl)pyrimidin-4-yl)-1-isopropyl-N^3-(2,2,2-trifluoroethyl)-1H-pyrazolo[4,3-c]pyridine-3,6-diamine]
13 | 1 | 3.1 | 44.9 | 208 | CCC(C)n1nc(N2CCNC2=O)c2cnc(Nc3ccnc(N4CC[C@H](O)[C@H](F)C4)n3)cc21 (stereo partly drawn) [Example 195, 1-(1-(sec-Butyl)-6-((2-((3R,4S)-3-fluoro-4-hydroxypiperidin-1-yl)pyrimidin-4-yl)amino)-1H-pyrazolo[4,3-c]pyridin-3-yl)imidazolidin-2-one]
14 | 0.9 | 1.1 | 12.5 | 263 | CCC(C)n1nc(N2CC[C@@H](O)C2)c2cnc(Nc3ccnc(N4CC[C@H](O)[C@H](F)C4)n3)cc21 (stereo partly drawn) [Example 196, (3R,4S)-1-(4-((1-(sec-Butyl)-3-((R)-3-hydroxypyrrolidin-1-yl)-1H-pyrazolo[4,3-c]pyridin-6-yl)amino)pyrimidin-2-yl)-3-fluoropiperidin-4-ol]
15 | 1.2 | 2.6 | 75.4 | 300 | CCC(C)n1nc(N2CCCC2=O)c2cnc(Nc3ccnc(N4CC[C@@H](O)[C@@H](F)C4)n3)cc21 (stereo partly drawn) [Example 200, 1-(1-(sec-Butyl)-6-((2-((3S,4R)-3-fluoro-4-hydroxypiperidin-1-yl)pyrimidin-4-yl)amino)-1H-pyrazolo[4,3-c]pyridin-3-yl)pyrrolidin-2-one]
16 | 2.8 | 4.8 | 141 | 881 | CCC(C)n1nc(N2CC3(COC3)C2)c2cnc(Nc3ccnc(N4CCC(C)(O)CC4)n3)cc21 (stereo not shown) [Example 202, 1-(4-((1-(sec-Butyl)-3-(2-oxa-6-azaspiro[3.3]heptan-6-yl)-1H-pyrazolo[4,3-c]pyridin-6-yl)amino)pyrimidin-2-yl)-4-methylpiperidin-4-ol]
17 | 1.5 | 2.1 | 77 | 619 | CCC(C)n1nc(N2CC[C@@H](O)C2)c2cnc(Nc3ccnc(N4CCC(C)(O)CC4)n3)cc21 (stereo partly drawn) [Example 203, 1-(4-((1-(sec-Butyl)-3-((R)-3-hydroxypyrrolidin-1-yl)-1H-pyrazolo[4,3-c]pyridin-6-yl)amino)pyrimidin-2-yl)-4-methylpiperidin-4-ol]
18 | 2.2 | 4.5 | 224 | 569 | CCC(C)n1nc(N2CCCC2=O)c2cnc(Nc3ccnc(N4CCC(C)(O)CC4)n3)cc21 (stereo not shown) [Example 204, 1-(1-(sec-Butyl)-6-((2-(4-hydroxy-4-methylpiperidin-1-yl)pyrimidin-4-yl)amino)-1H-pyrazolo[4,3-c]pyridin-3-yl)pyrrolidin-2-one]
19 | 2.7 | 9 | 287 | 831 | CC(C)n1nc(N2CC[C@@H](O)C2)c2cnc(Nc3ccnc(N4CCC(C)(O)CC4)n3)cc21 [Example 205, (R)-1-(4-((3-(3-Hydroxypyrrolidin-1-yl)-1-isopropyl-1H-pyrazolo[4,3-c]pyridin-6-yl)amino)pyrimidin-2-yl)-4-methylpiperidin-4-ol]
